{"source": "patent US20170216252A1", "about": "“ANTI-BACTERIAL PYRUVATE KINASE MODULATOR COMPOUNDS, COMPOSITIONS, USES AND METHODS” (SIMON FRASER UNIVERSITY, priority 2014, published 2017)"}
{"molecular_target": "T1, MRSA PK (Staphylococcus aureus, UniProt Q6GG09)", "T1 construct": "His tag (pET-28a(+) vector) (N); made in house; host or cells: E. coli BL-21 (DE3)", "assay": "MRSA PK activity, continuous LDH-coupled assay", "format": "biochemical, S. aureus (MRSA strain Sanger 252)", "conditions": "not given", "description": "(§1) Genomic DNA of MRSA strain Sanger 252 extracted using DNeasy Tissue Kit™ (Qiagen™) was used as a template to generate the His-tagged MRSA PK. Human cDNA from MCF-7 breast cancer cell line (courtesy of Dr. J Wong, BC Cancer Research Center (Vancouver, Canada) was used as a template to generate the full-length human M2 PK enzyme. The following primer sets were used creating appropriate restriction sites (NdeI and XhoI sites underlined): For cloning of MRSA PK: M27F 5′-[…]-3′ and M27R 5′-[…]-3′, for cloning of human M2 PK isoform: hM2F 5′-[…]-3′ and hM2R 5′-[…]-3′. The resulting PCR fragments for each construct were cloned into the NdeI and XhoI unique sites of the bacterial expression vector pET-28a (+) (Novagen™). […] The sequence and the correct reading frame of all constructs were verified by sequencing. Human M1, R and L PK constructs in pET-28-a(+) vectors (courtesy of Dr. L. Cantley, Harvard Medical, School (Boston, USA)) were used to generate relevant recombinant His-tagged human PK isoforms.\n(§2) MRSA and human constructs in pET-28a(+) were used to express relevant recombinant PK proteins in E. coli BL-21 (DE3). The proteins were expressed and purified using Ni-NTA agarose (Qiagen™) according to the manufacturer's protocol. Briefly, cells were grown to an absorbance of 0.4-0.5 at 600 nm in 2×YT medium, then induced with 0.1 mM IPTG for 3 h at 20° C. Cells were lysed by sonication on ice (3×10-s bursts with a 30-s recovery between bursts) in lysis buffer (0.2 mg/ml lysozyme, 50 mM Tris pH 7.5, 10 mM MgCl2, 200 mM NaCl, 100 mM KCl, 10% glycerol, 10 mM imidazole, 0.5% NP-40 and 1 mM DTT containing Complete™ protease inhibitor). Cell lysates were cleared by centrifugation (18,000×g in a Beckman™ JA-20 rotor) for 20 min at 4° C. and PK isoforms were purified by batch binding to Ni-NTA resin. The resins were then packed in columns (1×2 cm) and washed with 400 column volumes lysis buffer containing 30 mM imidazole. His-tagged PK isoforms were eluted with the same buffer containing 300 mM imidazole. The proteins were dialyzed overnight at 4° C. against 2000 volumes of ice-cold 30 mM Tris pH 7.5, 25 mM KCl, 5 mM MgCl2, 10% glycerol and 1 mM DTT to remove imidazole. All purification steps were done at 4° C.; enzymes were flash-frozen and stored at −70° C. […] Purity and physical integrity of proteins were assessed using SDS-polyacrylamide gel electrophoresis (SDS-PAGE) followed by coomassie blue staining. Protein concentration was estimated by Bradford assay (Bio-Rad Protein Assay™) using bovine serum albumin as a standard.\n(§3) Candidate MRSA PK inhibitors were assayed for their ability to inhibit enzymatic activities of MRSA and human PKs. PK activity was determined using a continuous assay coupled to lactate dehydrogenase (LDH) in which the change in absorbance at 340 nm owing to oxidation of NADH was measured using a Benchmark Plus™ microplate spectrophotometer (Bio-Rad Laboratories, Hercules, Calif.). […] Reactions were initiated by the addition of 15 nM of one of the PK enzymes. PK activity proportional to the rate of change at 340 nm was expressed as specific activity (μmol/min/mg), which is defined as the amount of PK that catalyzes the formation of one micromole of either product per minute. Inhibitors were dissolved in DMSO with the final concentration of the solvent never exceeding 1% of the assay volume. IC50 values were calculated by curve fitting on a four-parameter dose-response model with variable slope using Graphpad Prism 5.0™ (GraphPad™ Software Inc., La Jolla, Calif.). […] Reactions were performed at 30° C. for up to 5 min. All values determined represent at least two measurements, in triplicate (Tables 1-6) or duplicate unless mentioned otherwise.", "units": {"IC50": "µM"}}
{"smiles": "Brc1ccc2cc(CCc3cn4ccccc4n3)[nH]c2c1", "note": "[Compound 125, 2-(2-(6-Bromo-1H-indol-2-yl)ethyl)imidazo[1,2-a]pyridine]", "IC50": "> 1"}
{"smiles": "Cc1ccc(/C=C/c2cc3ccc(Br)cc3[nH]2)o1", "note": "[Compound 114, (E)-6-Bromo-2-(2-(5-methylfuran-2-yl)vinyl)-1H-indole]", "IC50": "> 1"}
{"smiles": "Brc1ccc2cc(/C=C/c3cc(-c4ccccc4)on3)[nH]c2c1", "note": "[Compound 105, (E)-3-(2-(6-Bromo-1H-indol-2-yl)vinyl)-5-phenylisoxazole]", "IC50": "> 100"}
{"smiles": "COC(=O)c1c(NCc2ccc(Cl)cc2)[nH]c2cc(Br)ccc12", "note": "[Compound 165, Methyl 6-bromo-2-(4-chlorobenzylamino)-1H-indole-3-carboxylate]", "IC50": "> 1"}
{"smiles": "Cc1cnc(/C=C/c2cc3ccc(Br)cc3[nH]2)cn1", "note": "[Compound 109, (E)-6-Bromo-2-(2-(5-methylpyrazin-2-yl)vinyl)-1H-indole]", "IC50": "> 1"}
{"smiles": "COc1ccc(/C=C/c2[nH]c3cc(Br)ccc3c2C(=O)O)nc1", "note": "[Compound 151, (E)-6-Bromo-2-(2-(5-methoxypyridin-2-yl)vinyl)-1H-indole-3-carboxylic acid]", "IC50": "> 1"}
{"smiles": "Cc1csc(/C=C/c2cc3ccc(Br)cc3[nH]2)n1", "note": "[Compound 113, (E)-2-(2-(6-Bromo-1H-indol-2-yl)vinyl)-4-methylthiazole]", "IC50": "> 1"}
{"smiles": "Cn1c(-c2cc3ccccc3s2)nc2ccc(Br)cc21", "note": "[Compound 155, 2-(Benzo[b]thiophen-2-yl)-6-bromo-1-methyl-1H-benzo[d]imidazole]", "IC50": "0.1 to 1"}
{"smiles": "COc1ccc(C#Cc2cc3ccc(Br)cc3[nH]2)cn1", "note": "[Compound 144, 6-Bromo-2-((6-methoxypyridin-3-yl)ethynyl)-1H-indole]", "IC50": "> 1"}
{"smiles": "Cn1c(-c2cc3ccccc3s2)nc2cc(Br)ccc21", "note": "[Compound 156, 2-(Benzo[b]thiophen-2-yl)-5-bromo-1-methyl-1H-benzo[d]imidazole]", "IC50": "> 1"}
{"smiles": "Cc1csc(/C=C/c2cc3ccc(Br)cc3[nH]2)c1", "note": "[Compound 117, (E)-6-Bromo-2-(2-(4-methylthiophen-2-yl)vinyl)-1H-indole]", "IC50": "> 1"}
{"smiles": "[N-]=[N+]=Nc1ccc2cc(-c3cc4ccc(Br)cc4[nH]3)[nH]c2c1", "note": "[Compound 88, 6-azido-6′-bromo-1H,1′H-2,2′-biindole]", "IC50": 0.0226}
{"smiles": "COC(=O)c1c(-c2cc3ccc(Br)cc3[nH]2)[nH]c2ccccc12", "note": "[Compound 90, methyl 6′-bromo-1H,1′H-[2,2′-biindole]-3-carboxylate]", "IC50": 0.0024}
{"smiles": "COc1ccc(/C=C/c2[nH]c3cc(Br)ccc3c2C(=O)C(F)(F)F)nc1", "note": "[Compound 172, (E)-1-(6-Bromo-2-(2-(5-methoxypyridin-2-yl)vinyl)-1H-indol-3-yl)-2,2,2-trifluoroethanone]", "IC50": "> 1"}
{"smiles": "Brc1ccc(CCc2cc3ccc(Br)cc3[nH]2)cc1", "note": "[Compound 37b, 6-bromo-2-(4-bromophenethyl)-1H-indole]", "IC50": 0.187}
{"smiles": "FC(F)(F)C1(c2ccc(-c3[nH]c4cc(Br)ccc4c3Cl)cc2)N=N1", "note": "[Compound 92, 6-bromo-3-chloro-2-(4-(3-(trifluoromethyl)-3H-diazirin-3-yl)phenyl)-1H-indole]", "IC50": 0.11}
{"smiles": "COC(=O)c1c(C#Cc2cc3cc(Cl)ccc3[nH]2)[nH]c2cc(Br)ccc12", "note": "[Compound 145, Methyl 6-bromo-2-((5-chloro-1H-indol-2-yl)ethynyl)-1H-indole-3-carboxylate]", "IC50": "> 1"}
{"smiles": "COC(=O)c1c(C#Cc2ncc(Cl)cn2)[nH]c2cc(Br)ccc12", "note": "[Compound 143, Methyl 6-bromo-2-((5-chloropyrimidin-2-yl)ethynyl)-1H-indole-3-carboxylate]", "IC50": "< 0.05"}
{"smiles": "Brc1ccc2cc(C#Cc3ccccn3)[nH]c2c1", "note": "[Compound 140, 6-Bromo-2-(pyridin-2-ylethynyl)-1H-indole]", "IC50": "> 1"}
{"smiles": "CC(=O)c1c(/C=C/c2ccc(Cl)cc2)[nH]c2cc(Br)ccc12", "note": "[Compound 122, (E)-1-(6-Bromo-2-(4-chlorostyryl)-1H-indol-3-yl)ethanone]", "IC50": "0.1 to 1"}
{"smiles": "COc1ccc(/C=C/c2cc3ccc(Br)cc3[nH]2)cn1", "note": "[Compound 111, (E)-6-Bromo-2-(2-(6-methoxypyridin-3-yl)vinyl)-1H-indole]", "IC50": "> 1"}
{"smiles": "Cc1ncc(/C=C/c2cc3ccc(Br)cc3[nH]2)s1", "note": "[Compound 115, (E)-5-(2-(6-Bromo-1H-indol-2-yl)vinyl)-2-methylthiazole]", "IC50": "> 1"}
{"smiles": "[N-]=[N+]=Nc1ccc(-c2cc3ccc(Br)cc3[nH]2)cc1", "note": "[Compound 93, 2-(4-azidophenyl)-6-bromo-1H-indole]", "IC50": 0.0405}
{"smiles": "O=C(c1c(/C=C/c2cn3ccccc3n2)[nH]c2cc(Br)ccc12)C(F)(F)F", "note": "[Compound 176, (E)-1-(6-Bromo-2-(2-(imidazo[1,2-a]pyridin-2-yl)vinyl)-1H-indol-3-yl)-2,2,2-trifluoroethanone]", "IC50": "> 1"}
{"smiles": "Cc1nc(/C=C/c2cc3ccc(Br)cc3[nH]2)co1", "note": "[Compound 112, (E)-4-(2-(6-Bromo-1H-indol-2-yl)vinyl)-2-methyloxazole]", "IC50": "> 100"}
{"smiles": "Cc1ccc(/C=C/c2cc3ccc(Br)cc3[nH]2)s1", "note": "[Compound 116, (E)-6-Bromo-2-(2-(5-methylthiophen-2-yl)vinyl)-1H-indole]", "IC50": "> 1"}
{"smiles": "FC(F)(F)C1(c2ccc(-c3cc4ccc(Br)cc4[nH]3)cc2)N=N1", "note": "[Compound 94, 6-bromo-2-(4-(3-(trifluoromethyl)-3H-diazirin-3-yl)phenyl)-1H-indole]", "IC50": 0.0783}
{"molecular_target": "T1, MRSA PK", "assay": "MRSA PK activity, continuous LDH-coupled assay", "format": "biochemical, S. aureus (MRSA strain Sanger 252)", "conditions": "read-out: % inhibition (IC50)", "description": "as §1, §2, §3", "units": {"inhibition at 4 µM": "%"}}
{"smiles": "Brc1ccc2cc(CCc3ccccc3)[nH]c2c1", "note": "[Compound 37a, 6-bromo-2-phenethyl-1H-indole]", "inhibition at 4 µM": 56}
{"molecular_target": "T1, MRSA PK", "assay": "MRSA PK activity, continuous LDH-coupled assay", "format": "biochemical, S. aureus (MRSA strain Sanger 252)", "conditions": "read-out: % inhibition at the highest concentration tested (IC50)", "description": "as §1, §2, §3", "units": {"inhibition at 10 µM": "%"}}
{"smiles": "Brc1ccc2[nH]c(-c3cc4ccccc4[nH]3)cc2c1", "note": "[Compound 10h, 5-Bromo-1H,1′H-2,2′-biindole]", "inhibition at 10 µM": 36}
{"smiles": "O=C(Nc1ccc(Br)cc1)c1cc2ccccc2[nH]1", "note": "[Compound 52]", "inhibition at 10 µM": 67}
{"smiles": "FC(F)(F)C1(c2ccc(-c3cc4ccc(Br)cc4[nH]3)cc2)NN1", "note": "[Compound 89, 6-Bromo-2-(4-(3-(trifluoromethyl)diaziridin-3-yl)phenyl)-1H-indole]", "inhibition at 10 µM": 84}
{"smiles": "Cn1c(C#Cc2cc3ccc(Br)cc3n2C)cc2ccc(Br)cc21", "note": "[Compound 26b, 1,2-bis(6-bromo-1-methyl-1H-indol-2-yl)ethyne]", "inhibition at 10 µM": 27}
{"test_system": "S. aureus ATCC 29213", "assay": "In vitro susceptibility, broth microdilution MIC", "format": "cell-based, Staphylococcus aureus", "conditions": "Staphylococcus aureus, ATCC29213, Table 8; tested at least in duplicate, differing values all given; read-out: MIC", "experimental": "(§4) The antimicrobial activities of PK inhibitor candidates were determined using the 96-well microtiter standard 2-fold serial broth microdilution method as described by CLSI (formerly NCCLS) with the various gram-positive and gram-negative bacteria species mentioned above. Bacteria from a single colony were grown, overnight in either BHI Broth (VRE), mueller hinton broth (S. aureus 29213; MRSA USA400) or L-broth (E. coli, P. aeruginosa, S. typhimuriu, K. Pneumonia and A. baumannii). […] Culture plates were incubated for 18-24 h at 37° C., and optical density at 600 nm (OD600) was measured using a Benchmark Plus™ microplate spectrophotometer (Bio-Rad™). The absorbance control values for the series containing CAMHB and inhibitor were subtracted as background from the corresponding infected wells. The MIC was defined as the lowest concentration of test compound leading to complete inhibition of cell growth in relationship to compound-free control wells as determined by optical density. […] All assays were run in triplicate (Tables 1-6) or duplicate. Experiments were replicated at least twice to verify reproducibility using the above conditions.", "units": {"MIC": "µg/mL"}}
{"smiles": "Brc1ccc2cc(CCc3cn4ccccc4n3)[nH]c2c1", "note": "[Compound 125, 2-(2-(6-Bromo-1H-indol-2-yl)ethyl)imidazo[1,2-a]pyridine]", "MIC": "> 64"}
{"smiles": "Brc1ccc2cc(/C=C/c3cc(-c4ccccc4)on3)[nH]c2c1", "note": "[Compound 105, (E)-3-(2-(6-Bromo-1H-indol-2-yl)vinyl)-5-phenylisoxazole]", "MIC": "> 64"}
{"smiles": "COC(=O)c1c(NCc2ccc(Cl)cc2)[nH]c2cc(Br)ccc12", "note": "[Compound 165, Methyl 6-bromo-2-(4-chlorobenzylamino)-1H-indole-3-carboxylate]", "MIC": 4}
{"smiles": "Cc1cnc(/C=C/c2cc3ccc(Br)cc3[nH]2)cn1", "note": "[Compound 109, (E)-6-Bromo-2-(2-(5-methylpyrazin-2-yl)vinyl)-1H-indole]", "MIC": "> 64"}
{"test_system": "S. aureus ATCC 29213", "assay": "In vitro susceptibility, broth microdilution MIC", "format": "cell-based, Staphylococcus aureus", "conditions": "Staphylococcus aureus, ATCC29213, Tables 1-6 and text; minimum concentration to give >98% inhibition of growth; read-out: MIC", "experimental": "as §4", "units": {"MIC": "µg/mL"}}
{"smiles": "O=C(Nc1ccc(Br)cc1)c1cc2ccccc2[nH]1", "note": "[Compound 52]", "MIC": "> 32"}
